Where a SMILES comes first, the peptide text is derived from it. Bridges are numbered along the chain shown (N, C = ends).
Assays:
[1] = tested on: E. coli O111:B4 LPS-challenged BALB/c mice; experiment: LPS-challenged mice experiment (septicemia model); format: in vivo
Description: Female BALB/c mice (5-6 weeks) was provided by HFK Bioscience Co. (Beijing, China). All mice were raised in laminar flow cabinets and housed individually in a room with strictly controlled temperature and humidity, where a 12-hour light and 12-hour dark cycle was implemented, and mice had free access to food and water throughout the experimental period.
E. coli O111:B4 LPS (Sigma-Aldrich) at a concentration of 15 mg/L was injected into the peritoneal cavity of female BALB/c mice (age 7 weeks, weight 15 ± 0.5 g), and approximately 30 min after the challenge of E. coli O111:B4 LPS, MccJ25 was orally gavaged to the mice at a concentration of 4.55 or 9.1 mg per kg body weight (BW). The concentrations of MccJ25 were selected based on our previous study ([24]). Mice were followed for 72 h to test the survival rate of mice that were later sacrificed. However, for LPS treated mice, when the lifespan of the mice was around 50%, the mice were sacrificed. The serum from mice were obtained. The lung, liver, spleen, jejunum, and ileum were harvested, kept in liquid nitrogen immediately, stored at -80°C until analysis. For histopathological assessment, tissues and organs were fixed using 4% paraformaldehyde, hematoxylin eosin (H&E) was applied to examine the histological and pathological changes according to the standard protocol as described previously ([24]).
In the LPS-challenged mice experiment, lifespan of mice was monitored for 72 h. In the cocktail of MDR E. coli strains infection experiment, BW change, rectal temperature, diarrhea scores and fecal image, or survival rate were measured. For the diarrhea score evaluation producer was referred to previous study ([24]).
(§1) The concentrations of tumor necrosis factor-α (TNF-α), interleukin-6 (IL-6), IL-4, interferon (IFN)-γ, and nitric oxide (NO) in serum were measured. In addition, TNF-α and NO levels were also measured in the supernatant of RAW264.7 cells. ELISA was performed using a commercial ELISA kit (eBioscience, San Diego, USA). LPS levels in plasma were analyzed using the QCL-1000 kit (Xiamen, China) based on the manufacturer’s standards. On the day of sacrifice, eyes were extracted with ethylenediaminetetraacetic acid (EDTA), and blood was collected into clean test tubes. Peripheral hemograms and white blood cells (WBCs) were analyzed using a Coulter LH755 hematology analyzer. The levels of serum D-lactate were measured using ELISA kit (Jiancheng, Nanjing, China) according to the manufacturer’s protocols.
The extent and mRNA expression levels of TNF-α, IL-6, IL-10, IL-1β, IFN-γ, and TLR4, and NF-κB in each body part of the jejunum, ileum, colon, and spleen and in RAW264.7 cells were clarified by RT–PCR as previously described ([31]). Primers for TNF-α, IL-6, IL-10, IL-1β, IFN-γ, TLR4, and NF-κB are described in Table S1 . The specific assay steps were as follows: total RNA was extracted from the jejunum, ileum, spleen, and cells by TRIzol reagent (Invitrogen, Carlsbad, CA). Combined with gel electrophoresis and a NanoDrop 2000 spectrophotometer (Thermo Fisher Scientific, Wilmington, DE), the quality and quantity of total RNA were determined. […] Then the 2^-ΔΔCt method was used for the next step of analysis.
Frozen tissue samples and fresh cells were homogenized in RIPA lysis buffer containing protease inhibitors (Applygen, Beijing, China). Protein levels were determined using a BCA protein assay kit (Thermo Fisher Scientific, Rockford, IL). Thirty micrograms of tissue and cell protein samples were electrophoresed on SDS polyacrylamide gels and electrotransferred to PVDF membranes (Millipore). […]

RAW 264.7 cells = experiment: LPS-induced inflammation in macrophages; format: cell-based, mouse
Description: The mouse macrophage cell line RAW 264.7 was obtained in our lab and stored in liquid nitrogen. Cells were cultured in DMEM supplemented with 1% antibiotics (100 U/mL penicillin and 100 µg/mL streptomycin) with 20% FBS at 37°C and 5% CO2. Cells were transferred and inoculated in 12-well plates (1 × 10^4 cells/well) and cultured for 24 h.
RAW 264.7 cells (approximately 2 × 10^4 cells/well) were cultured with 1 µg/mL E. coli LPS for 3 h at 37°C in the absence (control) or presence of 1 μg/mL MccJ25 at 5% CO2. The cells and cell culture supernatants were then collected. Culture supernatant mixed with Griess reagent (1:1) and incubated for 15 min at room temperature. A microplate reader was used to measure […] (NO) at 540 nm. The changes in induced NO levels were clarified based on the comparison between the values of the treated and control groups. Each experiment was repeated three times.
as §1
The extent and mRNA expression levels of TNF-α, IL-6, IL-10, IL-1β, IFN-γ, and TLR4, and NF-κB in each body part of the jejunum, ileum, colon, and spleen and in RAW264.7 cells were clarified by RT–PCR as previously described ([31]). Primers for TNF-α, IL-6, IL-10, IL-1β, IFN-γ, TLR4, and NF-κB are described in Table S1 . […] Combined with gel electrophoresis and a NanoDrop 2000 spectrophotometer (Thermo Fisher Scientific, Wilmington, DE), the quality and quantity of total RNA were determined. […]
Frozen tissue samples and fresh cells were homogenized in RIPA lysis buffer containing protease inhibitors (Applygen, Beijing, China). Protein levels were determined using a BCA protein assay kit (Thermo Fisher Scientific, Rockford, IL). […] Chemofluorescence was detected using the ImageQuant LAS 4000 mini system (GE Healthcare Biosciences AB, Inc., Sweden) with Western Blot Luminance Reagent (Applygen, Beijing, China), and the membranes were cleaned with an ImageQuant TL (GE Healthcare Life Science) gel imaging system for quantification.

## CC[C@H](C)[C@H](NC(=O)CNC(=O)[C@@H](NC(=O)[C@H](Cc1ccccc1)NC(=O)[C@H](Cc1ccc(O)cc1)NC(=O)[C@@H]1CCC(=O)NCC(=O)NCC(=O)N[C@@H](C)C(=O)NCC(=O)N[C@@H](Cc2c[nH]cn2)C(=O)N[C@@H](C(C)C)C(=O)N2CCC[C@H]2C(=O)N1)C(C)C)C(=O)NCC(=O)N[C@H](C(=O)N1CCC[C@H]1C(=O)N[C@H](C(=O)N[C@@H](CO)C(=O)N[C@@H](Cc1ccccc1)C(=O)N[C@@H](Cc1ccc(O)cc1)C(=O)NCC(=O)O)[C@@H](C)CC)[C@@H](C)O [MccJ25, microcin J25] (GGAGHVPEYFVGIGTPISFYG-OH; lactam N-8 (inferred); C-terminus assumed)
[1]; 4.55 mg/kg BW
  jejunum and ileum histopathology: moderate villus damage and epithelial cell sloughing
[1]; 9.1 mg/kg BW, compared with the control group
  jejunum and ileum histopathology: few changes in the villi, crypts and intestinal mucosa
[1]; ELISA, after LPS treatment
  serum levels of TNF-α, IL-6 and NO: showed a decreasing trend
[1]; H&E
  lung histopathology: partially reverse swelling and lung damage
[1]; H&E, MccJ25 30 min after LPS
  liver and spleen histopathology: substantially reduced the degree of edema and degradation of cytoplasmic proteins
[1]; different concentrations of MccJ25 vs LPS group
  WBC count: significantly reduce the counts of leukocytes
[1]; ileum, colon, or spleen, q-PCR
  TNF-α, TLR4 and IL-6 mRNA expression: significantly decreased
[1]; vs mice treated with LPS only
  plasma LPS concentrations: significantly decreased
[1]; western blot, vs LPS-infected group
  phosphorylated NF-κB, p38 MAPK and IκB protein expression: significantly decreased
RAW 264.7 cells; LPS 1 µg/mL, MccJ25 1 µg/mL
  LPS-stimulated expression of TNF-α and TLR-4 (RT-PCR): this stimulatory effect was inhibited
RAW 264.7 cells; LPS 1 µg/mL, MccJ25 1 µg/mL, 3 h
  LPS-induced TNF-α and NO secretion: this increase in secretion was alleviated
RAW 264.7 cells; western blot, after LPS challenge
  MyD88, TLR4, TNF-α and IL-6 protein expression: sharply decreased
RAW 264.7 cells; western blot, after LPS challenge for 3 h
  p-NF-κB and MyD88 protein expression: significantly decreased
